Laboratory results: article PMC9769880, “Diverse Sensory Repertoire of Paralogous Chemoreceptors Tlp2, Tlp3, and Tlp4 in Campylobacter jejuni” (Microbiology Spectrum, 2022)
“Also recorded” adds a separate entry of the source. Read-outs that look alike come from different tables or passages of the source.

Legend:
[1] = biological target: T1, Tlp3 (Campylobacter jejuni, UniProt Q0P864); assay: biochemical; assay type: binding
Description: His-tagged proteins (Tlp2, -3, and -4) were prepared as previously described ([11]) DNA segments encoding the periplasmic sensory domains (33 to 286 amino acids) of Tlp2 and (38 to 297 amino acids) of Tlp4 were amplified (see Table S7), ligated into pGEM-T Easy (Promega) and subcloned into pET-19b (Novagen) (see Table S6). Recombinant proteins were expressed in E. coli BL21(DE3) using 1 mM IPTG (isopropyl-β-D-thiogalactopyranoside) and purified using His-select-nickel chromatography as described previously ([8], [11]). […] Protein concentrations were determined using a NanoDrop spectrophotometer (Thermo Fisher).
(§1) Surface plasmon resonance (SPR) experiments were performed as described previously ([10], [11]) with the following modifications. […] All ligands were prepared in PBS (pH 7.2) and serially diluted from 0.2 to 0.0125 mM. A 10-min dissociation period was allocated after the introduction of each analyte. SPR experiments were performed in single-cycle kinetics mode using the BIAcore S200 biosensor system (Cytiva) at 25°C in PBS (pH 7.2) at a flow rate of 30 μL/min. The equilibrium dissociation constant (KD) for each analyte was determined using BIAcore S200 Evaluation software with a report point 4 s after the injection stop to account for the bulk transfer of the small molecule against a large amount of immobilized protein (as shown in Fig. S5).

[2] = biological target: T2, Tlp4 (Campylobacter jejuni, UniProt Q0PBP3); assay: biochemical; assay type: binding
T2 sequence (Q0PBP3 entry or part of it): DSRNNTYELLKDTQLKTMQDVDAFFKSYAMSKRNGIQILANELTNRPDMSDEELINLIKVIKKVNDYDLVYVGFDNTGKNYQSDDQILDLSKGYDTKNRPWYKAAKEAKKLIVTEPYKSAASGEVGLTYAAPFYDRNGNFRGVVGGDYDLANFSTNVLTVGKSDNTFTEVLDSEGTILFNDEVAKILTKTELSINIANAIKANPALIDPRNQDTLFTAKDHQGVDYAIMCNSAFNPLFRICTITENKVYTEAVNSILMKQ
Description: (§2) His-tagged proteins (Tlp2, -3, and -4) were prepared as previously described ([11]) DNA segments encoding the periplasmic sensory domains (33 to 286 amino acids) of Tlp2 and (38 to 297 amino acids) of Tlp4 were amplified (see Table S7), ligated into pGEM-T Easy (Promega) and subcloned into pET-19b (Novagen) (see Table S6). Recombinant proteins were expressed in E. coli BL21(DE3) using 1 mM IPTG (isopropyl-β-D-thiogalactopyranoside) and purified using His-select-nickel chromatography as described previously ([8], [11]). The purity of the proteins was confirmed by SDS-PAGE and Western blot analysis with anti-His antibodies (Bio-Rad). Protein concentrations were determined using a NanoDrop spectrophotometer (Thermo Fisher).
as §1, with “modifications. Briefly, purified proteins were diluted to 0.15 μM in sodium acetate (pH 4.0) and immobilized onto an active flow cell of a CM5 sensor chip with a flow rate of 5 μL/min for 7 min of contact time using a standard amine coupling protocol. Immobilized protein levels for all three proteins ranged from 6028.3 to 9779.3 response units (RU) providing a minimum expected response maximum (RMax) between 20 and 50 RU for the small molecules tested.” for “modifications.”

[3] = biological target: T3, Tlp2 (Campylobacter jejuni, UniProt Q0PBZ3); assay: biochemical; assay type: binding
T3 sequence (Q0PBZ3 entry or part of it): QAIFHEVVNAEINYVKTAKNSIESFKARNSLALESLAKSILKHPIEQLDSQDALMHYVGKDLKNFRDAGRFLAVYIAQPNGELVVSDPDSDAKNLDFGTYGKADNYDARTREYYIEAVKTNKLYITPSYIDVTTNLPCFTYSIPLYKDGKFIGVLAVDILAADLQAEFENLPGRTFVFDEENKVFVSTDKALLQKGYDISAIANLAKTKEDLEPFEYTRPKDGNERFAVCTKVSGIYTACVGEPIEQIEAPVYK
Description: as §2
as §1, with “modifications. Briefly, purified proteins were diluted to 0.15 μM in sodium acetate (pH 4.0) and immobilized onto an active flow cell of a CM5 sensor chip with a flow rate of 5 μL/min for 7 min of contact time using a standard amine coupling protocol. Immobilized protein levels for all three proteins ranged from 6028.3 to 9779.3 response units (RU) providing a minimum expected response maximum (RMax) between 20 and 50 RU for the small molecules tested.” for “modifications.”

[4] = biological target: T2, Tlp4; assay type: binding
Description: (§3) Glycan (>400 monosaccharides or complex glycans) and small molecule arrays containing amino acids and salts were performed as described previously by Day et al. ([67]). Briefly, 1 μg of purified recombinant protein was complexed with anti-His antibody (Cell Signaling Technology) and rabbit anti-mouse/goat anti-rabbit Alexa 555-IgG (Thermo Scientific) at a molar ratio of 1:0.5:0.25 and then incubated on the array for […] in phosphate-buffered saline (PBS). The array slides were scanned at 488/520 nm and analyzed using InnoScan 1100 with MAPIX software. All arrays were performed in triplicate with a total of 12 data points for each glycan tested; the complete data set and MIRAGE (i.e., minimum information regarding a glycomics experiment) results are shown in Tables S3 and S8.
(§4) Table S8 - Supplementary glycan microarray document based on M IRAGE guidelines. D O I:
(§5) Classification Guidelines
(§6) 1. Sample: Glycan Binding Sample
(§7) Origin: Helicobacter pylori SS1; produced as a recombinant His - tagged protein in E.
(§8) The preparation of Tlp2,3, and 4 is explained in the Materials and Methods section:
(§9) Expression and purification of the periplasmic domain of Tlp2,3, and 4.
(§10) Sample Sample is a His Tagged protein containing only the periplasmic receptor domain of the modifications full length Tlp2,3, and 4transmembrane protein.
(§11) Please see Materials and Methods: Tlps 2/3/4 bind to a range of ligands, including […]
(§12) Proteins were complexed with mouse anti- his antibody, with secondary and tertiary AlexaFluor555 antibodies (rabbit anti-mouse, goat anti-rabbit) at a molar ratio of 4:2:1.
(§13) The protein/antibody complex was incubated on ice for 10 mins prior to placing on the Assay protocol array. Arrays were performed with 1 µg of complexed protein incubated on the array for 20 min. Arrays were then washed 3 times in Array PBS (PBS + 2mM MgCl2 + 2mM CaCl2) then dried by centrifugation for 3 min at 300 x g . Scanning was performed us ing an Innopsys InnoScan 1100AL and analyzed using Mapix (Innopsys). Yes/no binding was determined by six positive replicate spots in three replicate experiments. Positive […]
(§14) Glycan Glycans in this study are listed in Table S2 and is a published library in doi:
(§15) Glycans were prepared in one of two ways for printing:
(§16) Glycan 1. Glycans (with IDs in number/letter format; e.g. 1A, 4C, 7K) were sourced modifications commercially from Dextra Laboratories, Elicityl and Carbosythn and were made into glycoamines using the protocol published in Day et al 2009 (doi:
(§17) Glycan arrays: We only use glycan arrays as a yes/no binding tool. Due to this we look only at binding that is unambiguously above background vs lack of binding above background. Average background + 3x standard deviation of the background of 20 sets of 4 spots of DMF:DMSO only spots is applied to determine if binding observed is […]
(§18) Only spots with values equal to or greater than this value were considered as binding from data of any tested slide. These values are slide […]
(§19) Data Small molecule arrays: We only use amino acid arrays as a yes/no binding tool. Due interpretation to this we look only at binding that is unambiguously above background vs lack of binding above background. Average background + 3x standard deviation of the background of 6 spots of PBS + 2% glycerol only spots is applied to determine if […]
(§20) Only spots with values equal to or greater than this value were considered as binding from data of any tested slide. These values are slide dependent. […]

[5] = biological target: T3, Tlp2; assay type: binding
Description: as §3, §4, §5, §6, §7, §8, §9, §10, §11, §12, §13, §14, §15, §16, §17, §18, §19, §20

[6] = biological target: T1, Tlp3; assay: Glycan/small molecule arrays with Tlp3; conditions: yes/no binding
Description: as §3, §4, §5, §6, §7, §8, §9, §10, §11, §12, §13, §14, §15, §16, §17, §18, §19, §20

[7] = tested on: Tlp2; assay type: cell-based, C. jejuni 11168-O; conditions: nutrient-depleted chemotaxis assay
Description: (§21) The biological relevance of the binding specificities of the Tlp2,3,4 cluster was assessed by examining chemotactic responses of C. jejuni 11168-O tlp2, tlp3, and tlp4 wild-type (WT) and mutant strains using a nutrient-depleted chemotaxis assay. All ligands, with the exception of lysine and cysteine, interacted with Tlp2 and Tlp4 as attractants (Table 1), showing an ~1- to ~2-log decrease (P < 0.05) in migration toward the ligand compared to the WT strain.
(§22) Chemotaxis assays—the nutrient-depleted chemotaxis assay and the modified hard agar plug assay (tHAP)—were performed as previously described ([11], [34]). The chemotactic responses of all isogenic strains were compared to that of the C. jejuni 11168-O wild-type strain to distinguish between chemoattractants and chemorepellents. For the nutrient-depleted chemotaxis and modified hard agar plug (tHAP) assays, all differences were calculated as changes on a log10 scale. Controls were provided by using nonmotile (C. jejuni 81116 flaAB) and nonchemotactic (C. jejuni NCTC 11168 cheY) mutants ([69]) and mucin as negative and positive controls ([10]).

[8] = biological target: Tlp3^LBD W151A (Campylobacter jejuni, UniProt Q0P864, W151A); assay: biochemical
Sequence of Tlp3^LBD W151A (Q0P864 41-290 W151A): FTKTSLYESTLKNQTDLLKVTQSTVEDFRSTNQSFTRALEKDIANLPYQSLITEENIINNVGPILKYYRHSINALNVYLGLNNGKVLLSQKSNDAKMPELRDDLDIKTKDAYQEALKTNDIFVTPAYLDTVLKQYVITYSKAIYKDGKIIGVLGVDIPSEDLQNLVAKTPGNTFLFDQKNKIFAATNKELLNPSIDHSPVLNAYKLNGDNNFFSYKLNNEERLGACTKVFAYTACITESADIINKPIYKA

[9] = biological target: Tlp3^LBD K149A (Campylobacter jejuni, UniProt Q0P864, K149A); assay: biochemical
Sequence of Tlp3^LBD K149A (Q0P864 41-290 K149A): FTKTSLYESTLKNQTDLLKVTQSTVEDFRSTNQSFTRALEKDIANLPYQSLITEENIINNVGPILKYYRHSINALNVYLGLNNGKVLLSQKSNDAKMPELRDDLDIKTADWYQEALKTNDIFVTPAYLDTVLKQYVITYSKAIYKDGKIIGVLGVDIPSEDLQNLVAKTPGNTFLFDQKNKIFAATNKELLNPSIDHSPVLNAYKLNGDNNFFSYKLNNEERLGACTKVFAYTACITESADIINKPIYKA

[10] = biological target: Tlp3^LBD D196A (Campylobacter jejuni, UniProt Q0P864, D196A); assay: biochemical
Sequence of Tlp3^LBD D196A (Q0P864 41-290 D196A): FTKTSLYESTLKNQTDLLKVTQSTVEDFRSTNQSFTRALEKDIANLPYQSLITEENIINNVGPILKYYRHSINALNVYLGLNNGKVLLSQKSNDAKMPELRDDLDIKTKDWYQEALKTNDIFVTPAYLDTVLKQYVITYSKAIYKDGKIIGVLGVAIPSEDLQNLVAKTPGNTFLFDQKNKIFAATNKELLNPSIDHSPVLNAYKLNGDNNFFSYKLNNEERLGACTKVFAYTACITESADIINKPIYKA

[11] = biological target: Tlp3^LBD D170A (Campylobacter jejuni, UniProt Q0P864); assay: biochemical
Sequence of Tlp3^LBD D170A (Q0P864 41-290 T170A): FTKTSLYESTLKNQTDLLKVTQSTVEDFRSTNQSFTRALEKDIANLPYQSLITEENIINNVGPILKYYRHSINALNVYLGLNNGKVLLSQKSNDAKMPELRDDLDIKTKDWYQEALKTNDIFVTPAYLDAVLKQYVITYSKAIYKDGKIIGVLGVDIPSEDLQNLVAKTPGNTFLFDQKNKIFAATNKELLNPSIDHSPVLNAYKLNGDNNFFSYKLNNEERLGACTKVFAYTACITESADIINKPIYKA

[12] = tested on: Tlp3; assay type: cell-based, C. jejuni 11168-O; conditions: chemotaxis of mutant compared to WT strain
Description: as §21, §22

[13] = biological target: Tlp3^LBD D169A (Campylobacter jejuni, UniProt Q0P864, D169A); assay: biochemical
Sequence of Tlp3^LBD D169A (Q0P864 41-290 D169A): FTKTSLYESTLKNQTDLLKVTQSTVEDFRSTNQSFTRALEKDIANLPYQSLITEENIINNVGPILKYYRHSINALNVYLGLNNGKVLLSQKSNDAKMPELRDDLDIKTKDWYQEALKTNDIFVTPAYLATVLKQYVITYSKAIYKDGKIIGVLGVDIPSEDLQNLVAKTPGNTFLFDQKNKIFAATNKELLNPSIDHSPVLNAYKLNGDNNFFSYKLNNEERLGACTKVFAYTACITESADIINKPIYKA

[14] = SPR KD, mean ± SD, NB = no binding, read-out: Tlp3 Affinity
[15] = SPR KD, mean ± SD, NB = no binding, read-out: Tlp4 Affinity
[16] = SPR KD, mean ± SD, NB = no binding, read-out: Tlp2 Affinity

T1 sequence (Q0P864 entry or part of it): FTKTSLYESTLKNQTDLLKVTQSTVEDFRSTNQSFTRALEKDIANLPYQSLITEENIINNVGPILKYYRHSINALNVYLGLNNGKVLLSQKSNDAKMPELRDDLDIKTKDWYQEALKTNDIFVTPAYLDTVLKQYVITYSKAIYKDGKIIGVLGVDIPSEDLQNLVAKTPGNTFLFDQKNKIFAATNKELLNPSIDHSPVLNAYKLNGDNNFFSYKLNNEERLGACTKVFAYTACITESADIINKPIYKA

Compound | Kd [1, 14] [µM] | Kd [2, 15] [µM] | Kd [3, 16] [µM] | binding to Tlp4 on glycan/small molecule array ([4]; yes/no binding) | binding to Tlp2 on glycan/small molecule array ([5]; yes/no binding) | binding to Tlp3 on glycan/small molecule array [6] | Kd [2] [µM] | Kd [3] [µM] | binding to Tlp4 on glycan/small molecule array [4] | binding to Tlp2 on glycan/small molecule array [5] | also measured
NC(=O)C[C@H](N)C(=O)O [Asparagine] | > 200 | 45.1 ± 6.1 | 12.8 ± 5.1 | bound | bound | – | – | – | – | – | –
N[C@@H](CC(=O)O)C(=O)O [Aspartate] | – | – | – | – | – | bind specifically | 75.3 ± 8.1 | 95.4 ± 0.9 | bound | bound | –
N[C@@H](CS)C(=O)O [Cysteine] | > 200 | 5.7 ± 5.8 | 10.8 ± 3.3 | bound | bound | – | – | – | – | – | chemotactic response via Tlp2 [7]: did not generate any significant chemotactic response; also recorded: did not affect the chemotactic movement
O=C[C@H](O)[C@@H](O)[C@@H](O)[C@H](O)CO [Galactose] | – | – | – | – | – | interacted | 18.3 ± 2.1 | 17.2 ± 1.3 | interacted | interacted | –
N[C@H]1C(O)O[C@H](CO)[C@@H](O)[C@@H]1O (stereo partly drawn) [Glucosamine] | – | > 200 | > 200 | – | – | – | – | – | – | – | Kd [8]: 34.3 ± 12.7 µM; Kd [1]: 7.1 ± 2.9 µM; Kd [9]: 24.3 ± 2.1 µM; Kd [10]: 45.5 ± 7.3 µM; Kd [11]: 39.7 ± 8.6 µM; Tlp3 CR (chemoresponse) [12]: R; Kd [13]: 38.4 ± 6.45 µM
